Data on 27 compounds can be found in patent publication US8785460B2, “Tricyclic compounds and use thereof” (Takeda Pharmaceutical Company Limited, priority 2008, dated 2014).

This assay deals with T1, human CRF1 receptor (Homo sapiens, UniProt P34998).
T1 construct: expressed in transfected cells; host or cells: CHO cells (membrane fraction)
T1 sequence (P34998 24-415): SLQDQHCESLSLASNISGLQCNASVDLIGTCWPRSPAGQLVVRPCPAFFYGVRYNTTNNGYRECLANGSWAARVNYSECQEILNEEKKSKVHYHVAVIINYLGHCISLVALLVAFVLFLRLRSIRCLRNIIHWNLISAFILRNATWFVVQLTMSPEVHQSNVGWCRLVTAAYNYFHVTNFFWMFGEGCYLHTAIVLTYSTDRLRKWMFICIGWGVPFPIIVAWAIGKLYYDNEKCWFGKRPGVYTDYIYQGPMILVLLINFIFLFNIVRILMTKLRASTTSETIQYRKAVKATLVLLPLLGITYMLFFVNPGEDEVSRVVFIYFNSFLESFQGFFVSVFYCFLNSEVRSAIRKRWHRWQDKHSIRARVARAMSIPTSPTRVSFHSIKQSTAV
The assay can be described thus: Measurement of CRF Binding Inhibitory Rate (receptor binding experiment with 125I-CRF). The settings on record: human CRF1 receptor expressing CHO cellular membrane fraction, 50 pM 125I-CRF, room temperature 1.5 hr, 0.05 nM to 10 μM of compound; read-out: IC50 values (CRF binding inhibition). As for the experimental part:
Measurement of CRF Binding Inhibitory Rate
A receptor binding experiment was carried out using a human CRF1 receptor expressing CHO cellular membrane fraction and ovine CRF, [^125I]-tyr^0(^125I-CRF). 1000 nM of a test compound was incubated with 1 μg of human CREF receptor expressing CHO cellular membrane fraction and 50 pM of ^125I-CRF in a binding assay buffer (50 mM Tris-HCl, 5 mM EDTA, 10 mM MgCl2, 0.05% CHAPS, 0.1% BSA, 0.5 mM PMSF, 0.1 μg/mL pepstatin, 20 μg/mL leupeptin, pH 7.5). In addition, for measuring nonspecific binding (NSB), 0.1 μM unlabelled human Urocortin was incubated with 5 μg of human CRE receptor expressing CHO cellular membrane fraction and 50 pM of ^125I-CRF in a binding assay buffer. After a binding reaction was carried out at room temperature for 1.5 hr, the membrane was entrapped on a glass filter (UniFilter plate GF-C/Perkin Elmer) by suction filtration using a cell harvester (Perkin Elmer), and washed with ice-cooled 50 mM Tris-HCl (pH 7.5). After drying the glass filter, a liquid scintillation cocktail (Microscinti 0, Perkin Elmer) was added, and the radioactivity of ^125I-CRF remaining on a glass filter was measured using Topcount (Perkin Elmer).
(TB−SB)/(TB−NSB)×100 (SB: radioactivity when a compound is added, TB: maximum binding radioactivity, NSB: nonspecific binding radioactivity) were calculated to obtain binding inhibitory rates under the range of the presence from 0.05 nM to 10 μM of each compound. The IC50 values were calculated by using GraphPad Prism software.
As for `COc1ccc(N2CCCCn3c2nc2c(Cl)ccc(CO)c23)c(Cl)c1` [Example 331, [10-Chloro-1-(2-chloro-4-methoxyphenyl)-2,3,4,5-tetrahydro-1H-[1,3]diazepino[1,2-a]benzimidazol-7-yl]methanol], the IC50 is under 1 µM. On to `CCN(CC)c1cccc2nc3n(c12)CC(F)(F)CCN3c1ccc(Cl)cc1Cl` [Example 359, 1-(2,4-Dichlorophenyl)-N,N-diethyl-4,4-difluoro-2,3,4,5-tetrahydro-1H-[1,3]diazepino[1,2-a]benzimidazol-7-amine], for which the IC50 was under 1 µM. Regarding `CCN(CC)c1cccc2nc3n(c12)CC(N=[N+]=[N-])CCN3c1ccc(Cl)cc1Cl` (stereo not drawn) [Example 361, 4-Azido-1-(2,4-dichlorophenyl)-N,N-diethyl-2,3,4,5-tetrahydro-1H-[1,3]diazepino[1,2-a]benzimidazol-7-amine], the IC50 was under 1 µM. To `OC(c1ccc(Br)c2nc3n(c12)CCCN3c1ccc(Cl)cc1Cl)(C1CC1)C1CC1` [Example 368, [9-Bromo-1-(2,4-dichlorophenyl)-1,2,3,4-tetrahydropyrimido[1,2-a]benzimidazol-6-yl](dicyclopropyl)methanol] belongs under 1 µM; to `CCC(NC(C)=O)c1ccc(Cl)c2nc3n(c12)CCCN3c1c(C)cc(Cl)cc1Cl` (stereo not drawn) [Example 377, N-{1-[9-Chloro-1-(2,4-dichloro-6-methylphenyl)-1,2,3,4-tetrahydropyrimido[1,2-a]benzimidazol-6-yl]propyl}acetamide], under 1 µM; to `CCC(O)c1ccc(Cl)c2nc3n(c12)CCCN3c1c(C)cc(Cl)cc1Cl` (stereo not drawn) [Example 379, 1-[9-Chloro-1-(2,4-dichloro-6-methylphenyl)-1,2,3,4-tetrahydropyrimido[1,2-a]benzimidazol-6-yl]propan-1-ol], under 1 µM. With `C=CCCC(O)c1ccc(Cl)c2nc3n(c12)CCCN3c1c(C)cc(Cl)cc1Cl` (stereo not drawn) [Example 381, 1-[9-Chloro-1-(2,4-dichloro-6-methylphenyl)-1,2,3,4-tetrahydropyrimido[1,2-a]benzimidazol-6-yl]pent-4-en-1-ol], the IC50 is under 1 µM.

In the case of `C=CCC(O)c1ccc(Cl)c2nc3n(c12)CCCN3c1c(C)cc(Cl)cc1Cl` (stereo not drawn) [Example 383, 1-[9-Chloro-1-(2,4-dichloro-6-methylphenyl)-1,2,3,4-tetrahydropyrimido[1,2-a]benzimidazol-6-yl]but-3-en-1-ol], the IC50 is under 1 µM. Take `CCC(c1ccc(Cl)c2nc3n(c12)CCCN3c1ccc(Cl)cc1Cl)N(C)S(C)(=O)=O` (stereo not drawn) [Example 385, N-{1-[9-Chloro-1-(2,4-dichlorophenyl)-1,2,3,4-tetrahydropyrimido[1,2-a]benzimidazol-6-yl]propyl}-N-methylmethanesulfonamide]: the IC50 was under 1 µM. Consider `Cc1cc(Cl)cc(Cl)c1N1CCCn2c1nc1c(Cl)ccc(C(O)CC3CC3)c12` (stereo not drawn) [Example 386, 1-[9-Chloro-1-(2,4-dichloro-6-methylphenyl)-1,2,3,4-tetrahydropyrimido[1,2-a]benzimidazol-6-yl]-2-cyclopropylethanol], for which the IC50 is under 1 µM. Regarding `CCC(c1ccc(Cl)c2nc3n(c12)CCCN3c1ccc(Cl)cc1Cl)N(C)C(C)=O` (stereo not drawn) [Example 388, N-{1-[9-Chloro-1-(2,4-dichlorophenyl)-1,2,3,4-tetrahydropyrimido[1,2-a]benzimidazol-6-yl]propyl}-N-methylacetamide], the IC50 was under 1 µM. Turning to `CCC(c1ccc(Cl)c2nc3n(c12)CCCN3c1ccc(Cl)cc1Cl)C(F)F` (stereo not drawn) [Example 403, 9-Chloro-1-(2,4-dichlorophenyl)-6-[1-(difluoromethyl)propyl]-1,2,3,4-tetrahydropyrimido[1,2-a]benzimidazole], the 50% inhibitory concentration (IC50) is under 1 µM.

As to `CCC(c1ccc(Cl)c2nc3n(c12)CCCN3c1ccc(Cl)cc1Cl)C(C)O` (stereo not drawn) [Example 404, 3-[9-Chloro-1-(2,4-dichlorophenyl)-1,2,3,4-tetrahydropyrimido[1,2-a]benzimidazol-6-yl]pentan-2-ol], the IC50 was under 1 µM.

For `CCC(C(C)=O)c1ccc(Cl)c2nc3n(c12)CCCN3c1ccc(Cl)cc1Cl` (stereo not drawn) [Example 405, 3-[9-Chloro-1-(2,4-dichlorophenyl)-1,2,3,4-tetrahydropyrimido[1,2-a]benzimidazol-6-yl]pentan-2-one], the IC50 is under 1 µM. The figure for `FC(F)(F)C(Cl)c1ccc(Cl)c2nc3n(c12)CCCN3c1c(Cl)cc(Cl)cc1Cl` (stereo not drawn) [Example 412, 9-Chloro-6-(1-chloro-2,2,2-trifluoroethyl)-1-(2,4,6-trichlorophenyl)-1,2,3,4-tetrahydropyrimido[1,2-a]benzimidazole] is under 1 µM.

On to `NC(c1ccc(Cl)c2nc3n(c12)CCCN3c1c(Cl)cc(Cl)cc1Cl)C(F)(F)F` (stereo not drawn) [Example 414, 1-[9-Chloro-1-(2,4,6-trichlorophenyl)-1,2,3,4-tetrahydropyrimido[1,2-a]benzimidazol-6-yl]-2,2,2-trifluoroethanamine], for which the IC50 was under 1 µM. The figure for `CC(=O)NC(c1ccc(Cl)c2nc3n(c12)CCCN3c1c(Cl)cc(Cl)cc1Cl)C(F)(F)F` (stereo not drawn) [Example 415, N-{1-[9-Chloro-1-(2,4,6-trichlorophenyl)-1,2,3,4-tetrahydropyrimido[1,2-a]benzimidazol-6-yl]-2,2,2-trifluoroethyl}acetamide] is under 1 µM; for `CCC(OC(=O)CC(C)(C)O)c1ccc(Cl)c2nc3n(c12)CCCN3c1ccc(Cl)cc1Cl` (stereo not drawn) [Example 444, 1-[9-Chloro-1-(2,4-dichlorophenyl)-1,2,3,4-tetrahydropyrimido[1,2-a]benzimidazol-6-yl]propyl 3-hydroxy-3-methylbutanoate] it is under 1 µM. Regarding `FC(F)COC(c1ccc(Cl)c2nc3n(c12)CCCN3c1ccc(Cl)cc1Cl)C1CC1` (stereo not drawn) [Example 464, 9-Chloro-6-[cyclopropyl(2,2-difluoroethoxy)methyl]-1-(2,4-dichlorophenyl)-1,2,3,4-tetrahydropyrimido[1,2-a]benzimidazole], the IC50 is under 1 µM.

Consider `COc1ccc(N2CCCn3c2nc2c(Cl)ccc(C(O)(C4CC4)C4CC4)c23)c(Cl)c1` [Example 465, [9-Chloro-1-(2-chloro-4-methoxyphenyl)-1,2,3,4-tetrahydropyrimido[1,2-a]benzimidazol-6-yl](dicyclopropyl)methanol], for which the IC50 was under 1 µM. For `CCC(OCC(F)(F)F)c1ccc(Cl)c2nc3n(c12)CCCN3c1ccc(OC)cc1Cl` (stereo not drawn) [Example 466, 9-Chloro-1-(2-chloro-4-methoxyphenyl)-6-[1-(2,2,2-trifluoroethoxy)propyl]-1,2,3,4-tetrahydropyrimido[1,2-a]benzimidazole], the IC50 is under 1 µM. With `CCOC(c1ccc(Cl)c2nc3n(c12)CCCN3c1ccc(OC)cc1Cl)C(F)(F)F` (stereo not drawn) [Example 470], the IC50 was under 1 µM. In the case of `COc1ccc(N2CCCn3c2nc2c(Cl)ccc(C(OC)C(F)(F)F)c23)c(Cl)c1` (stereo not drawn) [Example 471, 9-Chloro-1-(2-chloro-4-methoxyphenyl)-6-(2,2,2-trifluoro-1-methoxyethyl)-1,2,3,4-tetrahydropyrimido[1,2-a]benzimidazole], the IC50 is under 1 µM. The figure for `COc1ccc(N2CCCn3c2nc2c(Cl)ccc(C(OCC(F)F)C4CC4)c23)c(Cl)c1` (stereo not drawn) [Example 472, 9-Chloro-1-(2-chloro-4-methoxyphenyl)-6-[cyclopropyl(2,2-difluoroethoxy)methyl]-1,2,3,4-tetrahydropyrimido[1,2-a]benzimidazole] is under 1 µM. For `CCC(OC1CC1)c1ccc(Cl)c2nc3n(c12)CCCN3c1ccc(OC)cc1Cl` (stereo not drawn) [Example 474, 9-Chloro-1-(2-chloro-4-methoxyphenyl)-6-[1-(cyclopropyloxy)propyl]-1,2,3,4-tetrahydropyrimido[1,2-a]benzimidazole], the IC50 was under 1 µM. Regarding `CC(=O)NC(c1ccc(Cl)c2nc3n(c12)CCCN3c1ccc(Cl)cc1Cl)C(F)(F)F` (stereo not drawn) [Example 476, N-{1-[9-chloro-1-(2,4-dichlorophenyl)-1,2,3,4-tetrahydropyrimido[1,2-a]benzimidazol-6-yl]-2,2,2-trifluoroethyl}acetamide], the IC50 was under 1 µM. Consider `Cc1cc(S(C)(=O)=O)ccc1N1CCCn2c1nc1c(Cl)ccc(C(OC(F)F)C(F)(F)F)c12` (stereo not drawn) [Example 477, 9-Chloro-6-[1-(difluoromethoxy)-2,2,2-trifluoroethyl]-1-[2-methyl-4-(methylsulfonyl)phenyl]-1,2,3,4-tetrahydropyrimido[1,2-a]benzimidazole], for which the 50% inhibitory concentration (IC50) was under 1 µM.
